Assay results as given in ChEMBL document CHEMBL5126617, “Application of Degradation of Cyclic-AMP Response Element Binding Protein for the Potential Treatment of Cancer” (ACS Med Chem Lett, 2022).

Assays:
LNCaP = assay: Antiproliferative activity against human LNCaP cells assessed as reduction in cell viability by CellTitre-Glo assay; type: functional, cell-based
[1] = biological target: Protein cereblon/Histone acetyltransferase p300 (Homo sapiens) (UniProt Q09472+Q96SW2); assay: Protac activity at E3 ubiquitin ligase/P300 in human LNcaP cells assessed as degradation of P300 at 10 nM by immunoblotting analysis relative to control; type: cell-based
Protein cereblon/Histone acetyltransferase p300 (Homo sapiens), sequence (Q09472 2-2414 limits assumed): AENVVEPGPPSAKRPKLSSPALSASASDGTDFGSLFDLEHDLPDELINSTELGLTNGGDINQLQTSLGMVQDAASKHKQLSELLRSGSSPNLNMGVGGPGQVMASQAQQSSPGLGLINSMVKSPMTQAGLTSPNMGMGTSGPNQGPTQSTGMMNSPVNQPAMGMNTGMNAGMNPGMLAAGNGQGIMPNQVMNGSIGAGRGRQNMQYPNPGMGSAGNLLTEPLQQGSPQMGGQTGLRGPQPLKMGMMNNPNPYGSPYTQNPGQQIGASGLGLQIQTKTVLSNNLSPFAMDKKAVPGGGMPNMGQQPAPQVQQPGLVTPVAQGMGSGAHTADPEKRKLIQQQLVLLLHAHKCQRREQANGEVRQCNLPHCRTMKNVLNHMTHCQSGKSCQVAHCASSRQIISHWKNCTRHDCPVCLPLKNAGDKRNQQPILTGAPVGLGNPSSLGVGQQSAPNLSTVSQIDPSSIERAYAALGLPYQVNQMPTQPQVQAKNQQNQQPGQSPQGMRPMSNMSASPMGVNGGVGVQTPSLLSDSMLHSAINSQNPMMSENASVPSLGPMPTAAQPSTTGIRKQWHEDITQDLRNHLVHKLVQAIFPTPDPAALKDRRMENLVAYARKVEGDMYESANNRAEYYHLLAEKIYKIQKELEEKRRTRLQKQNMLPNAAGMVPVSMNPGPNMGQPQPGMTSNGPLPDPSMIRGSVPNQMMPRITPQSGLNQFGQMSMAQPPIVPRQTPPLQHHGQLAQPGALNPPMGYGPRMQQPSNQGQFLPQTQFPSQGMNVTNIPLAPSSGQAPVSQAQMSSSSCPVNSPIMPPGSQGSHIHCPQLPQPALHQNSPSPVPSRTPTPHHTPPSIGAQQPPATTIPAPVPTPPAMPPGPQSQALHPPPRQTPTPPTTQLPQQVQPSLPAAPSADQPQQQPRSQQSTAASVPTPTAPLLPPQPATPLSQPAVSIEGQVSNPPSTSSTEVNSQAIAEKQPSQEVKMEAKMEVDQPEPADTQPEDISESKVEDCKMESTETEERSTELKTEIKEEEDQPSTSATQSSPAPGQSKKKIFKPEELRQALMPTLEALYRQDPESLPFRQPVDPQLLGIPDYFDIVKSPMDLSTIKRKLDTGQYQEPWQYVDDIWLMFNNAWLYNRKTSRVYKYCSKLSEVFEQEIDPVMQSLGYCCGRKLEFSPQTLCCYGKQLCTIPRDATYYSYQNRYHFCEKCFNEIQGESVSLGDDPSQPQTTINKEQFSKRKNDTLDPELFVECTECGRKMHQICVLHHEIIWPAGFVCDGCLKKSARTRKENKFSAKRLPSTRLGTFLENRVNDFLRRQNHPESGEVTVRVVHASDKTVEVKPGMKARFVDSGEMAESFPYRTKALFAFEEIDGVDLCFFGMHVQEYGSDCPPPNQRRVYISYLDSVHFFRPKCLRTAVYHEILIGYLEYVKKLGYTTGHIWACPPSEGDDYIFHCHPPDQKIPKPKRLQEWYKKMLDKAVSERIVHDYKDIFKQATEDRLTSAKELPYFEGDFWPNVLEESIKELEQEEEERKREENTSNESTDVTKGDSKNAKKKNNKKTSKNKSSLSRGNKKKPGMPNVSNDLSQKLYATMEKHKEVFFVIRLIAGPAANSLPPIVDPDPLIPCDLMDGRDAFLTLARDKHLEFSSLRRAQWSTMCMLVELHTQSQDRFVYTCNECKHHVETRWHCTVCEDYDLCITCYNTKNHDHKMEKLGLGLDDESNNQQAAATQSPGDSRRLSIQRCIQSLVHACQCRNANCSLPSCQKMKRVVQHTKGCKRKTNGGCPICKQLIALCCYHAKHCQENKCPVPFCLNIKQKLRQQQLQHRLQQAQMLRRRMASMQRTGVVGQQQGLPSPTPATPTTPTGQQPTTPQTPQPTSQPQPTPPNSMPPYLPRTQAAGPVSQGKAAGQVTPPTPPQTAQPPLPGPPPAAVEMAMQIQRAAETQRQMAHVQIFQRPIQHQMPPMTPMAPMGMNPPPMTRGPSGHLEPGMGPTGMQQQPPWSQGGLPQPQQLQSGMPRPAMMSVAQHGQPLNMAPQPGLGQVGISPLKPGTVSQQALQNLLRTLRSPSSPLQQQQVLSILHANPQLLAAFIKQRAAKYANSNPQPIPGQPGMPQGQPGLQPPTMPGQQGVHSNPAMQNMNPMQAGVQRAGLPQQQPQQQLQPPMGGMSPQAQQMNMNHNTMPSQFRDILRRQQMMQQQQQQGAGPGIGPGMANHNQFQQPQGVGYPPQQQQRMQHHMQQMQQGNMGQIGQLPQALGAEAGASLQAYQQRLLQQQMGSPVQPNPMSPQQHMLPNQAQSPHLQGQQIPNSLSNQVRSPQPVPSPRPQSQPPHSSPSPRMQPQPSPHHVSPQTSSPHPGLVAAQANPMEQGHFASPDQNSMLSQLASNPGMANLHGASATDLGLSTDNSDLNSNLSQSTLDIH
Protein cereblon/Histone acetyltransferase p300 (Homo sapiens), sequence (Q96SW2 whole entry partner): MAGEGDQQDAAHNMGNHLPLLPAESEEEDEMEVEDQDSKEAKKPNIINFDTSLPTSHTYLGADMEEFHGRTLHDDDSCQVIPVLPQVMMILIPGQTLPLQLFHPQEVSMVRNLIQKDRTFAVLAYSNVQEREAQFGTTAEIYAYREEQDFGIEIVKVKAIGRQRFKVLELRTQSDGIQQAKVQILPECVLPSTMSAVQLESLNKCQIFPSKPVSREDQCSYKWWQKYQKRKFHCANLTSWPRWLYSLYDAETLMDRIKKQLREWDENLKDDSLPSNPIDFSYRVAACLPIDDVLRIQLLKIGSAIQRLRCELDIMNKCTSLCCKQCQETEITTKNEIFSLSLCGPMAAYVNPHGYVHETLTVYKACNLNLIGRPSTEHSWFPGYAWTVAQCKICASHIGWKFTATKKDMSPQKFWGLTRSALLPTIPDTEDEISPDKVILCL

IC50 (LNCaP) [pM] | Activity [1] [%] | SMILES
300 | > 80 | CC(=O)N1CCc2c(c(N3CCCc4cc(-c5cnn(C)c5)c(C(F)F)cc43)nn2C2CCN(CCN3CCC(CCc4ccc5c(c4)n(C)c(=O)n5C4CCC(=O)NC4=O)CC3)CC2)C1 (centres undefined)
800 | > 80 | CNC(=O)N1CCc2c(c(N3CCCc4cc(-c5cnn(C)c5)c(C(F)F)cc43)nn2C2CCN(C(=O)CCCCCCCNc3cccc4c3C(=O)N(C3CCC(=O)NC3=O)C4=O)CC2)C1 (centres undefined)
33100 | < 20 | CC(=O)N1CCc2c(c(N3CCCc4cc(-c5cnn(C)c5)c(C(F)F)cc43)nn2C2CCN(C(=O)CN3CCC(CCc4cccc5c4n(C)c(=O)n5C4CCC(=O)NC4=O)CC3)CC2)C1 (centres undefined)
700 | > 80 | CC(=O)N1CCc2c(c(N3CCCc4cc(-c5cnn(C)c5)c(C(F)F)cc43)nn2C2CCN(C(=O)CCCCCCCNc3cccc4c3C(=O)N(C3CCC(=O)NC3=O)C4=O)CC2)C1 (centres undefined)
100 | > 80 | CC(=O)N1CCc2c(c(N3CCCc4cc(-c5cnn(C)c5)c(C(F)F)cc43)nn2C2CCN(CCN3CCOC(CNc4cccc5c4C(=O)N(C4CCC(=O)NC4=O)C5=O)C3)CC2)C1 (centres undefined)
800 | > 80 | CC(=O)N1CCc2c(c(N3CCCc4cc(-c5cnn(C)c5)c(C(F)F)cc43)nn2C2CCN(CCCC3CCN(c4cccc5c4C(=O)N(C4CCC(=O)NC4=O)C5=O)CC3)CC2)C1 (centres undefined)
44500 | < 50 | CC(=O)N1CCc2c(c(N3CCCc4cc(-c5cnn(C)c5)c(C(F)F)cc43)nn2C2CCN(C(=O)CCCCCNc3cccc4c3C(=O)N(C3CCC(=O)NC3=O)C4=O)CC2)C1 (centres undefined)
900 | > 80 | CNC(=O)N1CCc2c(c(N3CCCc4cc(-c5cnn(C)c5)c(C(F)F)cc43)nn2C2CCN(C(=O)CCCCCn3c(=O)n(C4CCC(=O)NC4=O)c4ccccc43)CC2)C1 (centres undefined)
400 | > 80 | CNC(=O)N1CCc2c(c(N3CCCc4cc(-c5cnn(C)c5)c(C(F)F)cc43)nn2C2CCN(C(=O)CCCCCNc3cccc4c3C(=O)N(C3CCC(=O)NC3=O)C4=O)CC2)C1 (centres undefined)
100 | > 80 | CC(=O)N1CCc2c(c(N3CCCc4cc(-c5cnn(C)c5)c(C(F)F)cc43)nn2C2CCN(CCN3CCN(C#Cc4ccc5c(c4)n(C)c(=O)n5C4CCC(=O)NC4=O)CC3)CC2)C1 (centres undefined)
300 | > 80 | CC(=O)N1CCc2c(c(N3CCCc4cc(-c5cnn(C)c5)c(C(F)F)cc43)nn2C2CCN(C(=O)CCCN3CCN(Cc4ccc5c(c4)n(C)c(=O)n5C4CCC(=O)NC4=O)CC3)CC2)C1 (centres undefined)
100 | > 80 | CC(=O)N1CCc2c(c(N3CCCc4cc(-c5cnn(C)c5)c(C(F)F)cc43)nn2C2CCN(CCN3CCC(CCc4cccc5c4n(C)c(=O)n5C4CCC(=O)NC4=O)CC3)CC2)C1 (centres undefined)
